US8188291B2, “Heteroaryl-substituted carboxamides and their use as pharmaceuticals” (Sanofi-Aventis, priority 2006, dated 2012)
Structures can show the parent of a compound that is named as a salt.

system: eNOS promoter; test: Activation of eNOS transcription (eNOS promoter-luciferase reporter gene assay); format: cell-based; conditions: human endothelial cell line stably transfected with eNOS promoter-luciferase construct; 18 h incubation; determined graphically; read-out: EC50 values of transcription induction ratios (TIR)
Experimental: Determination of the Biological Activity A) Activation of eNOS Transcription
Activation of eNOS transcription was measured as described in detail by Li et al., “Activation of protein kinase C alpha and/or epsilon enhances transcription of the human endothelial nitric oxide synthase gene”, Mol. Pharmacol. 53 (1998) 630. Briefly, a 3.5 kB long fragment 5′ of the starting codon of the eNOS gene was cloned, sequenced and cloned in firefly luciferase expression plasmids to monitor activation of the eNOS promoter by reporter gene activity. A human endothelial cell line stable transfected and expressing this promoter-reporter construct was used for compound testing. Cells were incubated for 18 h with the compounds.
All compounds were dissolved in sterile dimethyl sulfoxide (DMSO). A final concentration of 0.5% DMSO in complete medium was allowed. Induction of reporter gene expression in these cells was measured using a standard luciferase assay system (Promega, Cat. No. E150) according to the manufacturer's instructions. Luciferase induction in cells incubated with compounds were compared to those incubated with solvent alone. The ratio of both activities (transcription induction ratio, TIR) was plotted as a function of compound concentration. Typically, TIR values started at low concentrations at a ratio of 1, indicating no compound effect, and extended up to a maximum TIR value TIR(max) which indicates the increase of the eNOS transcription. EC50 values of transcription induction ratios as a function of compound concentration were determined graphically.

Row | SMILES | EC50
1 | CC(C)(C)NC(=O)CSc1nc(-c2ccc(F)cc2)cs1 [Example 100, N-tert-Butyl-2-[4-(4-Fluoro-phenyl)-thiazol-2-ylsulfanyl]-acetamide] | 500 to 5000 nM
2 | O=C(CCc1ccc(-c2ccc(OC(F)(F)F)cc2)s1)NCC1CC1 [Example 7, N-Cyclopropylmethyl-3-[5-(4-trifluoromethoxy-phenyl)-thiophen-2-yl]-propionamide] | < 500 nM
3 | O=C(CSc1nc(-c2ccc(F)cc2)cs1)N1CCCC1 [Example 98, 2-[4-(4-Fluoro-phenyl)-thiazol-2-ylsulfanyl]-1-(pyrrolidin-1-yl)-ethanone] | 500 to 5000 nM
4 | O=C(COc1ccc(-c2ccccc2F)nc1)Nc1nccs1 [Example 78, 2-[6-(2-Fluoro-phenyl)-pyridin-3-yloxy]-N-(thiazol-2-yl) -acetamide trifluoroacetic acid salt] | < 500 nM
5 | O=C(CCc1ccc(-c2ccc(OC(F)(F)F)cc2)s1)NCC(F)(F)F [Example 8, N-(2,2,2-Trifluoro-ethyl)-3-[5-(4-trifluoromethoxy-phenyl) -thiophen-2-yl]-propionamide] | 500 to 5000 nM
6 | Nc1nc(CCC(=O)N2CCCCC2)ccc1-c1ccccc1 [Example 79, 3-(6-Amino-5-phenyl-pyridin-2-yl)-1-(piperidin-1-yl) -propanone] | < 500 nM
7 | O=C(CNc1nc(-c2ccc(F)cc2)cs1)N1CCCCC1 [Example 67, 2-[4-(4-Fluoro-phenyl)-thiazol-2-ylamino]-1-(piperidin-1-yl)-ethanone trifluoroacetic acid salt] | 500 to 5000 nM
8 | O=C(CNc1nc(-c2ccc(F)cc2)cs1)N1CCCC1 [Example 69, 2-[4-(4-Fluoro-phenyl)-thiazol-2-ylamino]-1-(pyrrolidin-1-yl)-ethanone trifluoroacetic acid salt] | < 500 nM
9 | O=C(CCc1ccc(-c2ccc(OC(F)(F)F)cc2)s1)Nc1ccccc1 [Example 10, N-Phenyl-3-[5-(4-trifluoromethoxy-phenyl)-thiophen-2-yl]-propionamide] | 500 to 5000 nM
10 | CC(=O)N1CCN(C(=O)CCc2ccc(-c3ccccc3F)s2)CC1 [Example 20, 1-(4-Acetyl-piperazin-1-yl)-3-[5-(2-fluoro-phenyl) -thiophen-2-yl]-propan-1-one] | 500 to 5000 nM
11 | O=C(CNc1ccc(-c2ccccc2F)nc1)N1CCCCC1 [Example 89, 2-[6-(2-Fluoro-phenyl)-pyridin-3-ylamino]-1-(piperidin-1-yl)-ethanone trifluoroacetic acid salt] | 500 to 5000 nM
12 | O=C(COc1ccc(-c2ccccc2F)nc1)Nc1ccccn1 [Example 77, 2-[6-(2-Fluoro-phenyl)-pyridin-3-yloxy]-N-(pyridin-2-yl) -acetamide trifluoroacetic acid salt] | < 500 nM
